This is an account of results in PubChem BioAssay (NCI).

Test systems include OVCAR-4 ovarian; HCT-15 colon; SW-620 colon; OVCAR-3 ovarian; OVCAR-8 ovarian; RXF 393 renal; SK-MEL-28 melanoma; MDA-MB-435; HS 578T breast; SR leukemia.
Test in all cases: DTP human tumour cell line panel, 48 h

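Method: 48-hour compound exposure of cells in 96-well plates, five concentrations, linear interpolation of endpoints. Here, GI50 denotes the concentration required for 50% inhibition of growth. Definition used: TGI = concentration required for complete inhibition of growth.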 A value given as a limit tells only on which side of the number the result lay.

`Cn1c(=O)nc2n(-c3ccc(Br)cc3)c3ccccc3nc-2c1=O`: the TGI with OVCAR-4 ovarian was 14.6 µM; in the assay with HCT-15 colon, 14.7 µM; in the assay with SW-620 colon, 6.57 µM; in the assay on OVCAR-3 ovarian it was 7.6 µM; in the assay on OVCAR-8 ovarian it was 18.3 µM; in the assay with RXF 393 renal, 29 µM.

As to `O=C1c2ccccc2C(=O)N1c1ccc(Cc2ccc(N3C(=O)c4ccccc4C3=O)cc2)cc1`, the TGI in the assay with OVCAR-4 ovarian, with HCT-15 colon, with SK-MEL-28 melanoma, in the assay with MDA-MB-435, with SW-620 colon and in the assay on OVCAR-3 ovarian was over 100 µM in each case. Also, the total growth inhibition concentration (TGI) in the assay with OVCAR-8 ovarian, in the assay with RXF 393 renal and in the assay on HS 578T breast was over 100 µM throughout.

For `C=CCCC(O)c1cc(C)c(O)c(C)c1` (stereo unspecified), the total growth inhibition concentration (TGI) in the assay on HCT-15 colon, in the assay with SK-MEL-28 melanoma, with SW-620 colon, with OVCAR-3 ovarian, in the assay with OVCAR-8 ovarian and in the assay on RXF 393 renal was over 100 µM each time.

On to `CCCCC[C@@H]1CCCC2NC(CCCCCO[Si](c3ccccc3)(c3ccccc3)C(C)(C)C)CCC21` (stereo partly specified), for which the concentration for total growth inhibition (TGI) in the assay with OVCAR-4 ovarian was determined as 21 µM; with HCT-15 colon, 25.7 µM; in the assay on SK-MEL-28 melanoma, 32.2 µM; in the assay on SW-620 colon, 31.6 µM; in the assay on OVCAR-3 ovarian, 30.7 µM; in the assay with OVCAR-8 ovarian, 32.7 µM. In the assay on RXF 393 renal, this compound gave a concentration for total growth inhibition (TGI) of 25.4 µM.

Take `O=c1[nH]c2nc3ccccc3c(=O)n2nc1Cc1ccccc1`: the TGI in the assay on SR leukemia, in the assay on OVCAR-4 ovarian, in the assay on HCT-15 colon, in the assay with SK-MEL-28 melanoma, in the assay on SW-620 colon and in the assay with OVCAR-3 ovarian was over 100 µM throughout. In addition, the TGI in the assay with OVCAR-8 ovarian was over 100 µM.

On to `O=C(c1ccc(Cl)cc1Cl)N1CCN(C(=O)c2ccc(Cl)cc2Cl)C1=S`, for which the GI50 in the assay on OVCAR-4 ovarian was 25.8 µM; in the assay on HCT-15 colon, 22.1 µM; in the assay with SK-MEL-28 melanoma it was 18.4 µM; in the assay with MDA-MB-435, 16.4 µM; in the assay with SW-620 colon, 28.2 µM; in the assay with OVCAR-3 ovarian it was 19.7 µM. The GI50 with OVCAR-8 ovarian is 22.1 µM; in the assay with RXF 393 renal it was 18.5 µM; in the assay with HS 578T breast it was 41 µM. For the same compound, the TGI in the assay on OVCAR-4 ovarian came to 80.9 µM; in the assay on HCT-15 colon it was 57.3 µM; in the assay with SK-MEL-28 melanoma, 39.4 µM; in the assay with MDA-MB-435 it was 33.7 µM; in the assay with SW-620 colon it was 98.2 µM; in the assay with OVCAR-3 ovarian it was 42.4 µM. The figures for the concentration for total growth inhibition (TGI) with OVCAR-8 ovarian, with RXF 393 renal and in the assay on HS 578T breast were 48.5 µM, 43 µM and over 100 µM, respectively.

As to `CCN(Cc1ccc(Cl)c(Cl)c1)c1ccc2nc(N)nc(N)c2c1C`, the GI50 in the assay with OVCAR-4 ovarian was 1.05 µM; with SK-MEL-28 melanoma it was 0.157 µM; with MDA-MB-435 it was under 0.01 µM; in the assay with SW-620 colon, under 0.01 µM. In addition, the total growth inhibition concentration (TGI) was found to be 16.1 µM with OVCAR-4 ovarian, 1.83 µM in the assay with SK-MEL-28 melanoma, 1.49 µM with MDA-MB-435 and 1.6 µM in the assay with SW-620 colon.

In the case of `C=CC[P@]1(=O)O[C@H](c2ccccc2)C(C)N1C(C)C` (stereo partly specified), the TGI in the assay with SR leukemia, with HCT-15 colon, with SK-MEL-28 melanoma, in the assay on SW-620 colon, with OVCAR-3 ovarian and in the assay with OVCAR-8 ovarian was over 100 µM in each case. Moreover, in the assay on RXF 393 renal, the total growth inhibition concentration (TGI) is over 100 µM.

On to `COc1ccc(C2=Nn3c(nnc3-c3ccc(F)c(Cl)c3)SC2)cc1`, for which the GI50 in the assay with OVCAR-4 ovarian, in the assay on HCT-15 colon, with SK-MEL-28 melanoma, with MDA-MB-435, with SW-620 colon and in the assay with OVCAR-3 ovarian was over 100 µM each time. The GI50 in the assay with OVCAR-8 ovarian, with RXF 393 renal and with HS 578T breast was over 100 µM each time. The TGI in the assay on OVCAR-4 ovarian, in the assay with HCT-15 colon, in the assay on SK-MEL-28 melanoma, in the assay with MDA-MB-435, in the assay with SW-620 colon and in the assay with OVCAR-3 ovarian was over 100 µM in each case. Moreover, the TGI in the assay with OVCAR-8 ovarian, in the assay with RXF 393 renal and in the assay on HS 578T breast was over 100 µM each time.

Take `CCOC(=O)c1ccc(N=Cc2ccc(N(CCC#N)S(=O)(=O)c3ccccc3)cc2C)cc1`: the concentration for total growth inhibition (TGI) with OVCAR-4 ovarian, in the assay with HCT-15 colon, with SK-MEL-28 melanoma, in the assay with SW-620 colon, in the assay on OVCAR-3 ovarian and in the assay on OVCAR-8 ovarian was over 100 µM in each case.

For `Cc1c(C)c2cc3c(=O)c(CCl)coc3c(C)c2oc1=O`, the TGI with HCT-15 colon, in the assay on SK-MEL-28 melanoma, with SW-620 colon, in the assay with OVCAR-3 ovarian, in the assay with OVCAR-8 ovarian and with RXF 393 renal was over 100 µM in each case.

In the case of `COCN1COCN(C)C1=O`, the total growth inhibition concentration (TGI) in the assay with OVCAR-4 ovarian, with HCT-15 colon, in the assay with SK-MEL-28 melanoma, in the assay with SW-620 colon, in the assay with OVCAR-3 ovarian and in the assay on OVCAR-8 ovarian was over 100 µM each time.

Consider `COc1ccc2c(c1OC)C(=O)C2`, for which the TGI in the assay on SR leukemia, with OVCAR-4 ovarian, with HCT-15 colon, in the assay with SK-MEL-28 melanoma, with SW-620 colon and in the assay with OVCAR-8 ovarian was over 100 µM in each case. Besides, the TGI with RXF 393 renal was over 100 µM.

For `O=C(NCCCN1CCN(CCCNC(=O)c2cccc3ccccc23)CC1)c1cccc2ccccc12`, the total growth inhibition concentration (TGI) in the assay on OVCAR-4 ovarian, in the assay on HCT-15 colon, with SW-620 colon, with OVCAR-3 ovarian and in the assay with OVCAR-8 ovarian was over 100 µM each time.

For the compound `COc1ccc(-c2cn(C)c3c2-n2cccc2C3=O)cc1O`, the GI50 was 25.6 µM in the assay with OVCAR-4 ovarian; 1.86 µM in the assay with HCT-15 colon; 11.4 µM in the assay with SK-MEL-28 melanoma; 0.893 µM in the assay on MDA-MB-435; 6.9 µM with SW-620 colon; 3.39 µM with OVCAR-3 ovarian. Moreover, the GI50 was 19.7 µM in the assay on OVCAR-8 ovarian, 42.3 µM with RXF 393 renal and 0.611 µM with HS 578T breast. Besides, the TGI was over 100 µM in the assay with OVCAR-4 ovarian; 9.15 µM in the assay with HCT-15 colon; 33.8 µM in the assay with SK-MEL-28 melanoma; 3.91 µM with MDA-MB-435; over 100 µM in the assay on SW-620 colon; 21.4 µM in the assay with OVCAR-3 ovarian. Also, the concentration for total growth inhibition (TGI) was over 100 µM in the assay with OVCAR-8 ovarian, 99.4 µM in the assay with RXF 393 renal and 3.9 µM in the assay on HS 578T breast.

As for `O=C(CC1(O)C(=O)Nc2ccccc21)c1ccc(Cl)c(Cl)c1` (stereo unspecified), the TGI with SR leukemia, in the assay with OVCAR-4 ovarian, in the assay on HCT-15 colon, with SK-MEL-28 melanoma, in the assay with SW-620 colon and in the assay with RXF 393 renal was over 100 µM each time.

Regarding `S=C1SCC2CCCN12` (stereo unspecified), the TGI in the assay on SR leukemia, in the assay on OVCAR-4 ovarian, with HCT-15 colon, in the assay with SW-620 colon, in the assay with OVCAR-8 ovarian and in the assay with RXF 393 renal was over 100 µM each time.

Turning to `O=C1/C(=C/c2ccc(F)cc2)COc2ccc(O)c(O)c21`, the GI50 was 2.77 µM in the assay on OVCAR-4 ovarian; 0.755 µM in the assay with HCT-15 colon; 2.27 µM with SK-MEL-28 melanoma; 2.07 µM in the assay with MDA-MB-435; 2.03 µM with SW-620 colon; 0.864 µM in the assay with OVCAR-3 ovarian. Moreover, the GI50 with OVCAR-8 ovarian was 2.16 µM; in the assay on RXF 393 renal, 1.85 µM; with HS 578T breast, 3.5 µM. The concentration for total growth inhibition (TGI) in the assay on OVCAR-4 ovarian is over 100 µM; in the assay on HCT-15 colon, 5.85 µM; in the assay with SK-MEL-28 melanoma, 5.91 µM; in the assay on MDA-MB-435, 8.78 µM; in the assay with SW-620 colon it was 11.3 µM; in the assay with OVCAR-3 ovarian, 9.4 µM. Besides, the TGI in the assay with OVCAR-8 ovarian is over 100 µM; in the assay with RXF 393 renal it was 3.64 µM; in the assay on HS 578T breast, over 100 µM.

Turning to `Cc1nc2ccccc2c(=O)n1/N=C(\N=Nc1ccc(Cl)cc1)c1cccc(-c2ccco2)c1`, the concentration for total growth inhibition (TGI) in the assay on HCT-15 colon is over 100 µM; with SK-MEL-28 melanoma, 58.7 µM; in the assay with SW-620 colon, over 100 µM; in the assay on OVCAR-8 ovarian, over 100 µM; in the assay on RXF 393 renal it was 76.8 µM.

For `CC(C)(C)c1cc(C2c3cc4c(cc3OC(O)(CO)C2C(=O)O)OCO4)cc(C(C)(C)C)c1O` (stereo unspecified) (tested in a mixture with another compound), the TGI with OVCAR-4 ovarian came to 25.6 µM; with HCT-15 colon it was 26 µM; in the assay with SK-MEL-28 melanoma, 28.7 µM; in the assay on SW-620 colon, 33.4 µM; in the assay on OVCAR-3 ovarian, 18.9 µM; in the assay with OVCAR-8 ovarian, 33.9 µM. This compound also came in with a TGI in the assay on RXF 393 renal of 29.4 µM.

For `CC(C)(C)OC(=O)NCCCCCCCCCn1c2c(c3ccccc3c1=O)C(=O)c1ccccc1-2`, the GI50 with OVCAR-4 ovarian was over 100 µM; with HCT-15 colon, over 100 µM; in the assay with SK-MEL-28 melanoma, over 100 µM; in the assay on MDA-MB-435, over 100 µM; in the assay on SW-620 colon, over 100 µM; in the assay with OVCAR-3 ovarian, 29.2 µM. Also, the GI50 is 56.1 µM in the assay with OVCAR-8 ovarian, 20.5 µM in the assay on RXF 393 renal and 14.2 µM in the assay on HS 578T breast. The concentration for total growth inhibition (TGI) in the assay with OVCAR-4 ovarian, with HCT-15 colon, in the assay with SK-MEL-28 melanoma, with MDA-MB-435, with SW-620 colon and with OVCAR-3 ovarian was over 100 µM throughout. For the same compound, the TGI in the assay on OVCAR-8 ovarian is over 100 µM; in the assay on RXF 393 renal, over 100 µM; in the assay with HS 578T breast it was 43.6 µM.

`O=C(n1c2ccccc2c2n[nH]c(=S)nc21)C(F)(F)F`: the concentration for total growth inhibition (TGI) with OVCAR-4 ovarian, in the assay with HCT-15 colon, in the assay on SK-MEL-28 melanoma, in the assay with SW-620 colon, with OVCAR-3 ovarian and with OVCAR-8 ovarian was over 100 µM throughout. Moreover, the total growth inhibition concentration (TGI) in the assay on RXF 393 renal was over 100 µM.
